Laboratory results: US7138361B2, “Herbicidal heterocycles” (E. I. du Pont de Nemours and Company, priority 2000, dated 2006)

How the values were obtained:
Assay in all cases: Test C preemergence
Type in all cases: in vivo
Nightshade [1] = conditions: scale 0 to 100, 0 no effect, 100 complete control
Sunflower = conditions: Rate 125 g/ha; scale 0 to 100, 0 no effect, 100 complete control
[2] = system: Surinam grass (Brachiaria decumbens); conditions: for Plant response rating, Surinam grass: scale 0 to 100, 0 no effect, 100 complete control; for Plant response rating (0 to 100), Surinam grass: preemergence, visual evaluation after 12 to 14 days
Method in brief: (§1)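 Formulation: non-phytotoxic solvent mix incl. surfactant. Pre: applied right after planting. Post: 1–4-leaf seedlings. Read: visual 0–100, day 12–14, greenhouse.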

[3] = system: bermudagrass (Cynodon dactylon); conditions: for Plant response rating, Bermudagrass: scale 0 to 100, 0 no effect, 100 complete control; for Plant response rating (0 to 100 where 0 is no effect and 100 is complete control), Bermudagrass: preemergence, visual evaluation after 12 to 14 days
Method in brief: as §1

[4] = system: cocklebur (Xanthium strumarium); conditions: for Plant response rating, Cocklebur: scale 0 to 100, 0 no effect, 100 complete control; for Plant response rating (0 to 100), Cocklebur: preemergence, visual evaluation after 12 to 14 days
Method in brief: as §1

[5] = system: common ragweed (Ambrosia elatior); conditions: for Plant response rating, Ragweed, Common: scale 0 to 100, 0 no effect, 100 complete control
Method in brief: as §1

corn (Zea mays) = conditions: for Plant response rating, Corn: scale 0 to 100, 0 no effect, 100 complete control; for Plant response rating (0 to 100), Corn: preemergence, visual evaluation after 12 to 14 days
Method in brief: as §1

[6] = system: crabgrass (Digitaria sanguinalis); conditions: for Plant response rating, Crabgrass: scale 0 to 100, 0 no effect, 100 complete control; for Plant response rating (0 to 100), Crabgrass: preemergence, visual evaluation after 12 to 14 days
Method in brief: as §1

[7] = system: giant foxtail (Setaria faberii); conditions: for Plant response rating, Foxtail, Giant: scale 0 to 100, 0 no effect, 100 complete control; for Plant response rating (0 to 100), Foxtail, Giant: preemergence, visual evaluation after 12 to 14 days
Method in brief: as §1

[8] = system: goosegrass (Eleusine indica); conditions: for Plant response rating, Goosegrass: scale 0 to 100, 0 no effect, 100 complete control; for Plant response rating (0 to 100), Goosegrass: preemergence, visual evaluation after 12 to 14 days
Method in brief: as §1

[9] = system: johnsongrass (Sorghum halepense); conditions: for Plant response rating, Johnsongrass: scale 0 to 100, 0 no effect, 100 complete control; for Plant response rating (0 to 100), Johnsongrass: preemergence, visual evaluation after 12 to 14 days
Method in brief: as §1

kochia (Kochia scoparia) = conditions: for Plant response rating, Kochia: scale 0 to 100, 0 no effect, 100 complete control; for Plant response rating (0 to 100), Kochia: preemergence, visual evaluation after 12 to 14 days
Method in brief: as §1

[10] = system: lambsquarters (Chenopodium album); conditions: for Plant response rating, Lambsquarters: scale 0 to 100, 0 no effect, 100 complete control
Method in brief: as §1

[11] = system: morningglory (Ipomoea hederacea); conditions: for Plant response rating, Morningglory: scale 0 to 100, 0 no effect, 100 complete control
Method in brief: as §1

[12] = system: pigweed (Amaranthus retroflexus); conditions: for Plant response rating, Pigweed: scale 0 to 100, 0 no effect, 100 complete control
Method in brief: as §1

soybean (Glycine max) = conditions: for Plant response rating, Soybean: scale 0 to 100, 0 no effect, 100 complete control
Method in brief: as §1

[13] = system: velvetleaf (Abutilon theophrasti); conditions: for Plant response rating, Velvetleaf: scale 0 to 100, 0 no effect, 100 complete control
Method in brief: as §1

[14] = system: woolly cupgrass (Eriochloa villosa); conditions: for Plant response rating, Cupgrass, Woolly: scale 0 to 100, 0 no effect, 100 complete control; for Plant response rating (0 to 100), Cupgrass, Woolly: preemergence, visual evaluation after 12 to 14 days
Method in brief: as §1

[15] = system: yellow nutsedge (Cyperus esculentus); conditions: for Plant response rating, Nutsedge: scale 0 to 100, 0 no effect, 100 complete control
Method in brief: as §1

Nightshade [16] = conditions: Rate 500 g/ha, visual evaluation after 12 to 14 days
[17] = preemergence, Rate 500 g/ha, visual evaluation after 12 to 14 days

CCC(C)c1ccn(C2CCN(c3cccc(OC(C)C)c3)C2=O)n1 (stereo not drawn) [Compound 83]
20: Plant response rating, Johnsongrass ([9]; Rate 62 g/ha)
90: Plant response rating (0 to 100), Surinam grass ([2]; Rate 250 g/ha) | Plant response rating, Kochia (kochia (Kochia scoparia); Rate 125 g/ha) | Plant response rating (0 to 100), Kochia (kochia (Kochia scoparia); Rate 250 g/ha) | Plant response rating, Cupgrass, Woolly ([14]; Rate 125 g/ha)
10: Plant response rating (0 to 100), Corn (corn (Zea mays); Rate 500 g/ha) | Plant response rating (0 to 100), Soybean (soybean (Glycine max); [17])
100: Plant response rating (0 to 100), Surinam grass ([2]; Rate 500 g/ha) | Plant response rating, Bermudagrass ([3]; Rate 62 g/ha) | Plant response rating, Bermudagrass ([3]; Rate 125 g/ha) | Plant response rating (0 to 100 where 0 is no effect and 100 is complete control), Bermudagrass ([3]; Rate 250 g/ha) | Plant response rating (0 to 100 where 0 is no effect and 100 is complete control), Bermudagrass ([3]; Rate 500 g/ha) | Plant response rating (0 to 100), Ragweed, Common [5, 17] | Plant response rating, Crabgrass ([6]; Rate 62 g/ha) | Plant response rating, Crabgrass ([6]; Rate 125 g/ha) | Plant response rating (0 to 100), Crabgrass ([6]; Rate 250 g/ha) | Plant response rating (0 to 100), Crabgrass ([6]; Rate 500 g/ha) | Plant response rating, Foxtail, Giant ([7]; Rate 125 g/ha) | Plant response rating, Goosegrass ([8]; Rate 62 g/ha) | Plant response rating, Goosegrass ([8]; Rate 125 g/ha) | Plant response rating (0 to 100), Goosegrass ([8]; Rate 250 g/ha) | Plant response rating (0 to 100), Goosegrass ([8]; Rate 500 g/ha) | Plant response rating (0 to 100), Kochia (kochia (Kochia scoparia); Rate 500 g/ha) | Plant response rating, Lambsquarters ([10]; Rate 62 g/ha) | Plant response rating, Lambsquarters ([10]; Rate 125 g/ha) | Plant response rating (0 to 100), Lambsquarters [10, 17] | Plant response rating, Lambsquarters ([10]; preemergence, Rate 250 g/ha) | Plant response rating (0 to 100), Pigweed [12, 17] | Plant response rating, Pigweed ([12]; preemergence, Rate 250 g/ha) | Plant response rating (0 to 100), Cupgrass, Woolly ([14]; Rate 250 g/ha) | Plant response rating (0 to 100), Cupgrass, Woolly ([14]; Rate 500 g/ha) | Plant response rating (0 to 100), Nightshade (Nightshade [16])
80: Plant response rating, Cupgrass, Woolly ([14]; Rate 62 g/ha)
50: Plant response rating, Nightshade (Nightshade [1]; Rate 125 g/ha) | Plant response rating, Surinam grass ([2]; Rate 125 g/ha) | Plant response rating, Pigweed ([12]; Rate 125 g/ha)
60: Plant response rating, Nightshade (Nightshade [1]; Rate 250 g/ha) | Plant response rating (0 to 100), Foxtail, Giant ([7]; Rate 250 g/ha) | Plant response rating, Kochia (kochia (Kochia scoparia); Rate 62 g/ha)
0: Plant response rating, Nightshade (Nightshade [1]; Rate 62 g/ha) | Plant response rating, Cocklebur ([4]; Rate 62 g/ha) | Plant response rating, Cocklebur ([4]; Rate 125 g/ha) | Plant response rating (0 to 100), Cocklebur ([4]; Rate 500 g/ha) | Plant response rating, Ragweed, Common ([5]; Rate 125 g/ha) | Plant response rating, Ragweed, Common ([5]; preemergence, Rate 250 g/ha) | Plant response rating, Corn (corn (Zea mays); Rate 62 g/ha) | Plant response rating, Corn (corn (Zea mays); Rate 125 g/ha) | Plant response rating (0 to 100), Corn (corn (Zea mays); Rate 250 g/ha) | Plant response rating, Foxtail, Giant ([7]; Rate 62 g/ha) | Plant response rating (0 to 100), Foxtail, Giant ([7]; Rate 500 g/ha) | Plant response rating, Morningglory ([11]; Rate 62 g/ha) | Plant response rating, Morningglory ([11]; Rate 125 g/ha) | Plant response rating (0 to 100), Morningglory [11, 17] | Plant response rating, Morningglory ([11]; preemergence, Rate 250 g/ha) | Plant response rating, Soybean (soybean (Glycine max); Rate 125 g/ha) | Plant response rating, Soybean (soybean (Glycine max); preemergence, Rate 250 g/ha) | Plant response rating, Velvetleaf ([13]; preemergence, Rate 250 g/ha) | Plant response rating, Nutsedge ([15]; Rate 62 g/ha) | Plant response rating, Nutsedge ([15]; Rate 125 g/ha) | Plant response rating (0 to 100), Nutsedge [15, 17] | Plant response rating, Nutsedge ([15]; preemergence, Rate 250 g/ha)
30: Plant response rating, Sunflower (Sunflower) | Plant response rating (0 to 100), Cocklebur ([4]; Rate 250 g/ha) | Plant response rating, Johnsongrass ([9]; Rate 125 g/ha) | Plant response rating (0 to 100), Johnsongrass ([9]; Rate 250 g/ha) | Plant response rating (0 to 100), Johnsongrass ([9]; Rate 500 g/ha) | Plant response rating, Velvetleaf ([13]; Rate 125 g/ha)
40: Plant response rating, Surinam grass ([2]; Rate 62 g/ha) | Plant response rating (0 to 100), Velvetleaf [13, 17]
